Measurements as given in publication PMC7204524 (Tetrahedron, 2020).

Target: T1, T. brucei methionyl-tRNA synthetase (TbMetRS) (Trypanosoma brucei, UniProt Q38C91)
T1 sequence (Q38C91 1-773): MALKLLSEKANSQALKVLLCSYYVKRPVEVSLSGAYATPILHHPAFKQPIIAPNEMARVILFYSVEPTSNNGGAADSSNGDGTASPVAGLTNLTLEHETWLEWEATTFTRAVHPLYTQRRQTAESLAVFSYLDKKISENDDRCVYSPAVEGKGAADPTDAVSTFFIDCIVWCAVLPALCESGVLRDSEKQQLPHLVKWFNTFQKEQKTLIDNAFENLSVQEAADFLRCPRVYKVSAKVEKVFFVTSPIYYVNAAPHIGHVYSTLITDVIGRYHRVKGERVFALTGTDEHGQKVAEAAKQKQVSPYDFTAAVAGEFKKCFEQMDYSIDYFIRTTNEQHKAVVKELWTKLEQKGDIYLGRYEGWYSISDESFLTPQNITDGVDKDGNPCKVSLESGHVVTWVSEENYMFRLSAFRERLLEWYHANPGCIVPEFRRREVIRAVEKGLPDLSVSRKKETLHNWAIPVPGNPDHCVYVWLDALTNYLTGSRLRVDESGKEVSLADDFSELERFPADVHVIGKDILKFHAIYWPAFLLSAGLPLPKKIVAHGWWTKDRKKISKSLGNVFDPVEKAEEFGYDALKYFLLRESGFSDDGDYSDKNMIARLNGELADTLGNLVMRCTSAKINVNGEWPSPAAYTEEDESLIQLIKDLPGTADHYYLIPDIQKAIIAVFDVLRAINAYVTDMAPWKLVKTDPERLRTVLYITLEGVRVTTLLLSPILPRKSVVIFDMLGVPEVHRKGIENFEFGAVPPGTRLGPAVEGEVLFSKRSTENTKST
Experiment: colorimetric pyrophosphatase-coupled inhibition assay
Format: biochemical

C[C@@H](O)[C@@H]1C(=O)N(CCc2c[nH]c3ccccc23)CC[C@@H]1N(C)Cc1cc(Cl)cc(Cl)c1 (racemic) [14a, (3R,4S)-1-(2-(1H-Indol-3-yl)ethyl)-4-((3,5-dichlorobenzyl)(methyl)amino)-3-((R)-1-hydroxyethyl)piperidin-2-one]
%: 15–30 % inhibition at 200 μM
